Experimental data from US20260184669A1, “LIPID COMPOUND AND COMPOSITION FOR DELIVERY OF ACTIVE SUBSTANCE” (KOREA RESEARCH INSTIUTE OF BIOSCIENCE AND BIOTECHNOLOGY, priority 2022, published 2026).

Key:
[1] = Size, polydispersity index and surface charge of mRNA-LNP (Malvern Zetasizer Nano ZS90); assay type: physicochemical
In short: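 Dynamic/electrophoretic light scattering of LNPs diluted in PBS to a final mRNA concentration of 1 μg/mL. Readouts were particle size, PDI and surface charge.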

[2] = Apparent pKa of mRNA-LNP by TNS binding assay; assay type: physicochemical; settings: apparent pKa of mRNA-LNP made with the ionizable lipid
Method: The apparent pKa of the mRNA-LNPs prepared according to Example 27 was determined by analysis using 6-(p-toluidino)-2-naphthalenesulfonic acid sodium salt (TNS; Sigma-Aldrich, USA).
However, as the pH decreases, the proportion of positively charged ionizable lipids increases, allowing electrostatic interactions with TNS. […] When the pH of the solution increases and the ionizable lipids become neutralized, TNS can no longer engage in electrostatic interactions. Consequently, TNS loses its lipophilic character, exits the hydrophobic domain, and its fluorescence is quenched. Based on this principle, the pKa of LNPs can be measured by plotting the change in TNS fluorescence intensity in response to variations in the surrounding pH as an S-shaped curve, and calculating the […] of the inflection point. […]
Specifically, a master buffer was prepared containing 10 mM sodium phosphate, 10 mM sodium borate, 10 mM sodium citrate, and 150 mM sodium chloride (NaCl). […] After gently mixing the contents of each well, the fluorescence intensity was measured using a multiplate reader (Cary Eclipse, Agilent Technologies, USA) at an excitation wavelength of λex 330 nm and an emission wavelength of λem 435 nm.

female C57BL/6 mice = assay: Protein expression efficiency of fLuc mRNA-LNPs after intramuscular injection (IVIS whole-body luminescence); assay type: in vivo; settings: fLuc mRNA-LNP, intramuscular injection, luminescence at injection site, mice
In short: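 Female C57BL/6 mice (6-10 weeks, n≥4) got intramuscular fLuc mRNA-LNPs at 0.1-0.5 mg/kg mRNA. Injection-site luminescence was imaged under isoflurane at 1-72 h, 10 min after i.p. D-luciferin (200 μL, 15 mg/mL). Expression at 3 h was taken relative to MC3 or SM-102 LNPs.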

[3] = system: IL-1β mRNA level in HEK-293T cells
[4] = system: IL-6 mRNA level in HEK-293T cells
[5] = system: CCL3 mRNA level in HEK-293T cells
[6] = Stability of mRNA-LNPs according to storage temperature and duration; assay type: physicochemical; settings: for Normalized EE % D-7 / PDI D-7 / Size (nm) D-7: day 7; for Normalized EE % D-30 / PDI D-30 / Size (nm) D-30: day 30
Method: Stability of fLuc mRNA-LNPs produced using various ionizable lipids according to the method of Example 27, was assessed by storing the LNPs at 4° C. and 25° C. At 1, 7, and 30 days post-manufacture, the size, PDI, and encapsulation efficiency (EE) of each mRNA-LNPs samples were measured using the methods described in Experimental Examples 2 and 3.

[7] = system: CCL2 mRNA level in HEK-293T cells
[8] = fLuc mRNA-LNP stored at 4° C., day 1
[9] = fLuc mRNA-LNP stored at 25° C., day 1

CCCCC/C=C\C/C=C\CCCCCCCCC(CCCCCCCC/C=C\C/C=C\CCCCC)OC(=O)CCCN(C)C [MC3, DLin-MC3-DMA, reference compound]
PDI ([1]; mRNA-LNP made with the ionizable lipid at its optimal formulation (Table 2)): 0.174 | size (nm) Number ([1]; mRNA-LNP made with the ionizable lipid at its optimal formulation (Table 2), diluted with PBS to 1 μg/mL mRNA): 93 nm | Zeta (mV) ([1]; surface charge of mRNA-LNP made with the ionizable lipid at its optimal formulation (Table 2)): −2.65 mV | PKa [2]: 6.14 | Total flux 1 hour (female C57BL/6 mice; 1 hour after administration): 1.20E+06 | Total flux 3 hours (female C57BL/6 mice; 3 hours after administration): 1.24E+07 | Total flux 6 hours (female C57BL/6 mice; 6 hours after administration): 1.78E+07 | Total flux 48 hours (female C57BL/6 mice; 48 hours after administration): 8.41E+05 | Total flux 72 hours (female C57BL/6 mice; 72 hours after administration): 3.89E+05 | Total flux (female C57BL/6 mice; after administration): 1.03E+06 | IL-1β Average [3]: 1.46 | IL-6 Average [4]: 1.27 | CCL3 Average [5]: 1.86 | Normalized EE % D-1 [6, 8]: 95.0% | Size (nm) D-1 [6, 8]: 92.8 nm | Normalized EE % D-7 ([6]; fLuc mRNA-LNP stored at 4° C.): 94.0% | PDI D-7 ([6]; fLuc mRNA-LNP stored at 4° C.): 0.060 | Size (nm) D-7 ([6]; fLuc mRNA-LNP stored at 4° C.): 128.7 nm | Normalized EE % D-30 ([6]; fLuc mRNA-LNP stored at 4° C.): 90.4% | PDI D-30 ([6]; fLuc mRNA-LNP stored at 4° C.): 0.142 | Size (nm) D-30 ([6]; fLuc mRNA-LNP stored at 4° C.): 125.6 nm | Normalized EE % D-1 [6, 9]: 95.0% | PDI D-1 [6, 9]: 0.174 | Size (nm) D-1 [6, 9]: 92.8 nm | Normalized EE % D-7 ([6]; fLuc mRNA-LNP stored at 25° C.): 90.8% | PDI D-7 ([6]; fLuc mRNA-LNP stored at 25° C.): 0.110 | Size (nm) D-7 ([6]; fLuc mRNA-LNP stored at 25° C.): 123.0 nm | Normalized EE % D-30 ([6]; fLuc mRNA-LNP stored at 25° C.): 88.3% | PDI D-30 ([6]; fLuc mRNA-LNP stored at 25° C.): 0.123 | Size (nm) D-30 ([6]; fLuc mRNA-LNP stored at 25° C.): 119.3 nm | CCL2 Average [7]: 1.15
